{"source": "ChEMBL document CHEMBL4364276", "about": "“Discovery of 4-phenyl-2H-benzo[b][1,4]oxazin-3(4H)-one derivatives as potent and orally active PI3K/mTOR dual inhibitors” (Eur J Med Chem, 2019)", "key": {"[1]": {"target": "Serine/threonine-protein kinase PAK 3 (Homo sapiens) (UniProt O75914)", "sequence (O75914 whole entry, looked up)": "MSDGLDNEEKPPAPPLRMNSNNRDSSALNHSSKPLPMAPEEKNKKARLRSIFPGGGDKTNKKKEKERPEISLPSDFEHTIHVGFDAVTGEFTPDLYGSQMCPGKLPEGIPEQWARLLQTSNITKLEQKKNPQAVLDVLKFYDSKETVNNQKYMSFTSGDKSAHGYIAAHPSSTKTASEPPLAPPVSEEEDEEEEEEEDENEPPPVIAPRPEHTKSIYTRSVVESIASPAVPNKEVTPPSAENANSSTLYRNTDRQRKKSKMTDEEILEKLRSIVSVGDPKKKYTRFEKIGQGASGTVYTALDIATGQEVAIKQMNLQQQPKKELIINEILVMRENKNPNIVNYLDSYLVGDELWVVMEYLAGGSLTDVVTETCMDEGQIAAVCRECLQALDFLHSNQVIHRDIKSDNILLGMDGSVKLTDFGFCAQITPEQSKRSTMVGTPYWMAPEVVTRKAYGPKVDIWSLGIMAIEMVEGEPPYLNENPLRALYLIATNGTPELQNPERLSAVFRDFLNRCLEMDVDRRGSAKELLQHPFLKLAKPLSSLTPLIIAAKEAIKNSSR", "assay": "Inhibition of human PAK3 at 100 nM using RRRLSFAEPG as substrate by [gamma-33P]-ATP assay"}, "[2]": {"target": "Serine/threonine-protein kinase 3 (Homo sapiens) (UniProt Q13188)", "sequence (Q13188 whole entry)": "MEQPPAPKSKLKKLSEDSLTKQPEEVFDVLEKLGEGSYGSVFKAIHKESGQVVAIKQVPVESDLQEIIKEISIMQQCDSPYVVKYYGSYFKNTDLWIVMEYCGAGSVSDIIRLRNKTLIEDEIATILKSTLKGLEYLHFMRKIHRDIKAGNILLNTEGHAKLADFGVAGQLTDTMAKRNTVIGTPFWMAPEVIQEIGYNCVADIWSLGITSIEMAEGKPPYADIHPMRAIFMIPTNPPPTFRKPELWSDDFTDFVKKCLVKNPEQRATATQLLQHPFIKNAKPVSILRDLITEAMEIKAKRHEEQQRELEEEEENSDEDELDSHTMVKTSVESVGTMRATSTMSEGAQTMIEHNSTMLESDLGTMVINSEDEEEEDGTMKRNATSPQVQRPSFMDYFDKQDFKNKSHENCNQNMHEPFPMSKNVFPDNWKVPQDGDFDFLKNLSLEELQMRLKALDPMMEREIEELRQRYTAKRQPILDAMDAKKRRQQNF", "assay": "Inhibition of human MST2 at 100 nM using MBP as substrate by [gamma-33P]-ATP assay"}, "[3]": {"target": "Casein kinase I isoform epsilon (Homo sapiens) (UniProt P49674)", "assay": "Inhibition of human CK1E at 100 nM using KRRRAL[pS]VASLPGL as substrate by [gamma-33P]-ATP assay"}, "[4]": {"target": "Calcium/calmodulin-dependent protein kinase type II subunit gamma (Homo sapiens) (UniProt Q13555)", "assay": "Inhibition of human CAMK2G at 100 nM using KKLNRTLSFAEPG as substrate by [gamma-33P]-ATP assay"}, "[5]": {"target": "Myotonin-protein kinase (Homo sapiens) (UniProt Q09013)", "assay": "Inhibition of human DMPK at 100 nM using KKRNRRLSVA as substrate by [gamma-33P]-ATP assay"}, "[6]": {"target": "MAP kinase-activated protein kinase 5 (Homo sapiens) (UniProt Q8IW41)", "assay": "Inhibition of human MAPKAPK5 at 100 nM using KKLNRTLSVA as substrate by [gamma-33P]-ATP assay"}, "[7]": {"target": "CDK1/Cyclin E (Homo sapiens) (UniProt P06493+P24864)", "assay": "Inhibition of human CDK1/cyclinE at 100 nM using RB protein as substrate by [gamma-33P]-ATP assay", "type": "protein-complex assay"}, "[8]": {"target": "RAC-gamma serine/threonine-protein kinase (Homo sapiens) (UniProt Q9Y243)", "assay": "Inhibition of human AKT3 at 100 nM using KGSGSGRPRTSSFAEG as substrate by [gamma-33P]-ATP assay"}, "[9]": {"target": "CDK9/Cyclin-T2 (Homo sapiens) (UniProt P50750+O60583)", "assay": "Inhibition of human CDK9/cyclin-T2 at 100 nM using KTFCGTPEYLAPEVRREPRILSEEEQEMFRDFDYIADWC as substrate by [gamma-33P]-ATP assay", "type": "protein-complex assay"}, "[10]": {"target": "Mitogen-activated protein kinase kinase kinase 2 (Homo sapiens) (UniProt Q9Y2U5)", "assay": "Inhibition of human MEKK2 at 100 nM using MBP as substrate by [gamma-33P]-ATP assay"}, "[11]": {"target": "Calcium/calmodulin-dependent protein kinase type 1 (Homo sapiens) (UniProt Q14012)", "sequence (Q14012 whole entry, looked up)": "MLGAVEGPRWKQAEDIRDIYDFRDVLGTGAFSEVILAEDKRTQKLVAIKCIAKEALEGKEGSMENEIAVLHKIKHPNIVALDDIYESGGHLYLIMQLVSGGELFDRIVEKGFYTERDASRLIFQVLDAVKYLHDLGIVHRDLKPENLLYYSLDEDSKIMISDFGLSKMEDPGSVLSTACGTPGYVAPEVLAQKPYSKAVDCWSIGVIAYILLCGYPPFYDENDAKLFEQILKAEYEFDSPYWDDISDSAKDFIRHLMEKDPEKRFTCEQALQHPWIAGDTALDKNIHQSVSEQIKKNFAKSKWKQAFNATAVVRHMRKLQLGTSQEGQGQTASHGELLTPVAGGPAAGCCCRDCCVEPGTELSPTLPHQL", "assay": "Inhibition of human CAMK1A at 100 nM using KKALRRQETVDAL as substrate by [gamma-33P]-ATP assay"}, "[12]": {"target": "Myosin-IIIb (Homo sapiens) (UniProt Q8WXR4)", "assay": "Inhibition of human MYO3B at 100 nM using MBP as substrate by [gamma-33P]-ATP assay"}, "[13]": {"target": "Serine/threonine-protein kinase/endoribonuclease IRE2 (Homo sapiens) (UniProt Q76MJ5)", "sequence (Q76MJ5 35-926 limits assumed)": "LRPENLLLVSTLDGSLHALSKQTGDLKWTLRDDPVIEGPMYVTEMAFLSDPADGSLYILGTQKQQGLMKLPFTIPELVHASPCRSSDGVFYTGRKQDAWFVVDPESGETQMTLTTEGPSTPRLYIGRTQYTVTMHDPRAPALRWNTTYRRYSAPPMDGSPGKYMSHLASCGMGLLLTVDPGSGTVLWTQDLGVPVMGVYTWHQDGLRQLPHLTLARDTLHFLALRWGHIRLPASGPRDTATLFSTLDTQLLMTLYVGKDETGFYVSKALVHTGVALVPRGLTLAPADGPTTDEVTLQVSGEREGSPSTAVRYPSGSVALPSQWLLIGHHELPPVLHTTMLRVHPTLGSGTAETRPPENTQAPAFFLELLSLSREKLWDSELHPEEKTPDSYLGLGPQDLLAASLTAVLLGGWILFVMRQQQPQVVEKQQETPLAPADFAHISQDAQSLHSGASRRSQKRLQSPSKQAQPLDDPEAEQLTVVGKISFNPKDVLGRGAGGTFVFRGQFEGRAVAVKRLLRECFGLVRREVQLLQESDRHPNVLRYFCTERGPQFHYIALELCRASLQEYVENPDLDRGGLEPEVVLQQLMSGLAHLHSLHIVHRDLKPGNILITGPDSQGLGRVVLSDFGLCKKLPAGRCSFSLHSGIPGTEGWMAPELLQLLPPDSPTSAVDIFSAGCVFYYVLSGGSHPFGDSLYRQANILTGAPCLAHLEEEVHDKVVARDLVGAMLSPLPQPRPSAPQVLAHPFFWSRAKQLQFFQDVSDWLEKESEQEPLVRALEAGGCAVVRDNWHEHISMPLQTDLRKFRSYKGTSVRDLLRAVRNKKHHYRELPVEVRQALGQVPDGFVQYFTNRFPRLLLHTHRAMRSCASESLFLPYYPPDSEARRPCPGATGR", "assay": "Inhibition of human ERN2 at 100 nM using MBP as substrate by [gamma-33P]-ATP assay"}, "[14]": {"target": "Serine/threonine-protein kinase Sgk2 (Homo sapiens) (UniProt Q9HBY8)", "assay": "Inhibition of human SGK2 at 100 nM using KGSGSGRPRTSSFAEG as substrate by [gamma-33P]-ATP assay"}, "[15]": {"tested_on": "L02", "assay": "Cytotoxicity against human LO2 cells assessed as reduction in cell viability at 0.625 to 20 uM incubated for 72 hrs by MTT assay", "type": "cell-based", "settings": "l02, 72 h"}, "[16]": {"target": "Calcium/calmodulin-dependent protein kinase type II subunit beta (Homo sapiens) (UniProt Q13554)", "assay": "Inhibition of human CAMK2B at 100 nM using KKALRRQETVDAL as substrate by [gamma-33P]-ATP assay"}, "[17]": {"target": "Casein kinase I isoform gamma-3 (Homo sapiens) (UniProt Q9Y6M4)", "assay": "Inhibition of human CK1gamma3 at 100 nM using KRRRAL[pS]VASLPGL as substrate by [gamma-33P]-ATP assay"}, "[18]": {"target": "Serine/threonine-protein kinase D3 (Homo sapiens) (UniProt O94806)", "assay": "Inhibition of human PKCnu at 100 nM using KKLNRTLSVA as substrate by [gamma-33P]-ATP assay"}, "[19]": {"target": "Tau-tubulin kinase 1 (Homo sapiens) (UniProt Q5TCY1)", "assay": "Inhibition of human TTBK1 at 100 nM using MBP as substrate by [gamma-33P]-ATP assay"}, "[20]": {"target": "Tyrosine-protein kinase JAK1 (Homo sapiens) (UniProt P23458)", "sequence (P23458 whole entry)": "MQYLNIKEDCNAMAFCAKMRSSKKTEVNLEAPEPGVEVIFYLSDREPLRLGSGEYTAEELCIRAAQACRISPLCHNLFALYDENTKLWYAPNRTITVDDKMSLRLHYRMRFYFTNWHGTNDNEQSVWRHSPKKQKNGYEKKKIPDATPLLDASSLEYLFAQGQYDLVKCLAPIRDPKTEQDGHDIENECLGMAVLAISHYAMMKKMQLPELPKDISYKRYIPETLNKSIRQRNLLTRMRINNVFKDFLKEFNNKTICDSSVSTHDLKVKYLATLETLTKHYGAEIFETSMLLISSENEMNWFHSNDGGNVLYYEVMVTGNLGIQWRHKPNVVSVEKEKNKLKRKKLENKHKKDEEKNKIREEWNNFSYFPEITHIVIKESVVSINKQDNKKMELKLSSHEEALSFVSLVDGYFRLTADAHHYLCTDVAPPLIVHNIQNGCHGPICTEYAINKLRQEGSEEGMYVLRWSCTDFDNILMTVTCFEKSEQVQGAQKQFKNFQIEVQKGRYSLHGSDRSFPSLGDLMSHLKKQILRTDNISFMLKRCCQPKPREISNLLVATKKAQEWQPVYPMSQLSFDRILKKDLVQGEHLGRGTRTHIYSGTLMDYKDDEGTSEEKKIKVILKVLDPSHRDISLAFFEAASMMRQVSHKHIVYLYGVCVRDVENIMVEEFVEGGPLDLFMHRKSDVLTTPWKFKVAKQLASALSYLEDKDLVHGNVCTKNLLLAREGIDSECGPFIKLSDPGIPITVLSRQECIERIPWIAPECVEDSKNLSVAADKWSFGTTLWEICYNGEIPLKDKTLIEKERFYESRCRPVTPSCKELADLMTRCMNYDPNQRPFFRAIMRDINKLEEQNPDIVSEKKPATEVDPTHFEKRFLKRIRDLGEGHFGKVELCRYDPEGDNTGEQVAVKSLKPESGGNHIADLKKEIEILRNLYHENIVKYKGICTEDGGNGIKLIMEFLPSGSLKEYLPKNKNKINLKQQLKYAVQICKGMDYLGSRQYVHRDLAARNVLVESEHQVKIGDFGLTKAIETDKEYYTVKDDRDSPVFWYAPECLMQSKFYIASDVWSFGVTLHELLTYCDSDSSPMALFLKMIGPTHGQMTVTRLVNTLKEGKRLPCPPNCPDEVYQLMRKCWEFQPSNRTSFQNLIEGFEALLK", "assay": "Inhibition of human JAK1 at 100 nM using poly[Glu:Tyr] (4:1) as substrate by [gamma-33P]-ATP assay"}, "[21]": {"target": "Rhodopsin kinase GRK1 (Homo sapiens) (UniProt Q15835)", "assay": "Inhibition of human GRK1 at 100 nM using casein as substrate by [gamma-33P]-ATP assay"}, "[22]": {"target": "Calcium/calmodulin-dependent protein kinase type II subunit delta (Homo sapiens) (UniProt Q13557)", "assay": "Inhibition of human CAMK2D at 100 nM using KKLNRTLSFAEPG as substrate by [gamma-33P]-ATP assay"}, "[23]": {"target": "Eukaryotic translation initiation factor 2-alpha kinase 3 (Homo sapiens) (UniProt Q9NZJ5)", "assay": "Inhibition of human EIF2AK3 at 100 nM using MBP as substrate by [gamma-33P]-ATP assay"}, "[24]": {"target": "Protein kinase C delta type (Homo sapiens) (UniProt Q05655)", "sequence (Q05655 whole entry, looked up)": "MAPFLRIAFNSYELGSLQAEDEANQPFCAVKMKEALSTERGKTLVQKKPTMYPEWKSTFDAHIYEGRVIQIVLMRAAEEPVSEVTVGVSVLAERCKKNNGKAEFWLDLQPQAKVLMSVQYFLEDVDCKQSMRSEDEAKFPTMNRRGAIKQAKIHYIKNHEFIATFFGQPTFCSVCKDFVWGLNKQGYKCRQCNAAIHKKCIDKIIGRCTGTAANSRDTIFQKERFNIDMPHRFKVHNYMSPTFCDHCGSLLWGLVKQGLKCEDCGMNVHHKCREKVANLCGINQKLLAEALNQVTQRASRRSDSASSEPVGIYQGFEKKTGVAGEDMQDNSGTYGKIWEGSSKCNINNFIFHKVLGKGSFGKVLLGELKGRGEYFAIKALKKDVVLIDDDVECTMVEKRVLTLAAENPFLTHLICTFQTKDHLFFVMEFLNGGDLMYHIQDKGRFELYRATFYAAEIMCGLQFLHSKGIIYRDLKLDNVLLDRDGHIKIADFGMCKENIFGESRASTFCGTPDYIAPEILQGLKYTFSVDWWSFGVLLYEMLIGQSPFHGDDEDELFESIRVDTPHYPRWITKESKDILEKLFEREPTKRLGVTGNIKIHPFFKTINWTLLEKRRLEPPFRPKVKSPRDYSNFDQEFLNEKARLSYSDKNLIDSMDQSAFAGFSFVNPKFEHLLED", "assay": "Inhibition of human PKCdelta at 100 nM using ERMRPRKRQGSVRRRV as substrate by [gamma-33P]-ATP assay"}, "[25]": {"target": "Activin receptor type-1B (Homo sapiens) (UniProt P36896)", "assay": "Inhibition of human ALK4 at 100 nM using casein as substrate by [gamma-33P]-ATP assay"}, "[26]": {"target": "Dual specificity tyrosine-phosphorylation-regulated kinase 1B (Homo sapiens) (UniProt Q9Y463)", "sequence (Q9Y463 whole entry, looked up)": "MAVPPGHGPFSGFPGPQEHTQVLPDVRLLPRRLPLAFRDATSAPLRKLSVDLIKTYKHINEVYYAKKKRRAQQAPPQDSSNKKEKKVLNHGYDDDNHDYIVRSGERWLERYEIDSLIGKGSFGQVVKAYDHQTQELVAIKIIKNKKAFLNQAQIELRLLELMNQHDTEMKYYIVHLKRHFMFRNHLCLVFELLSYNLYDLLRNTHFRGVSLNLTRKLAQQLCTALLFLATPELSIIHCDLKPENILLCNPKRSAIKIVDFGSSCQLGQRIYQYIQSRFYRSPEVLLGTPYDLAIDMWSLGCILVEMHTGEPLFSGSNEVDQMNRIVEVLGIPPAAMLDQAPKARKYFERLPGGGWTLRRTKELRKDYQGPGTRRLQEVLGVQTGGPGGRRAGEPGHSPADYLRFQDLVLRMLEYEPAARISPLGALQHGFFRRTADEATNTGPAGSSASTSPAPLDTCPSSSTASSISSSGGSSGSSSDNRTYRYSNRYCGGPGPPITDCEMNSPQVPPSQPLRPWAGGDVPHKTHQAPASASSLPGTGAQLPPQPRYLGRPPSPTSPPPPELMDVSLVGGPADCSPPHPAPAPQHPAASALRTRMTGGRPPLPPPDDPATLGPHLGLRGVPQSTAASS", "assay": "Inhibition of human DYRK1B at 100 nM using RRRFRPASPLRGPPK as substrate by [gamma-33P]-ATP assay"}, "[27]": {"target": "Kinase suppressor of Ras 2 (Homo sapiens) (UniProt Q6VAB6)", "assay": "Inhibition of human KSR2 at 100 nM using KRREILSRRPSYR as substrate by [gamma-33P]-ATP assay"}, "[28]": {"target": "cGMP-dependent protein kinase 2 (Homo sapiens) (UniProt Q13237)", "assay": "Inhibition of human PKG2 at 100 nM using LRRASLG as substrate by [gamma-33P]-ATP assay"}, "[29]": {"target": "Dual specificity testis-specific protein kinase 2 (Homo sapiens) (UniProt Q96S53)", "assay": "Inhibition of human TESK2 at 100 nM using cofilin as substrate by [gamma-33P]-ATP assay"}, "[30]": {"target": "Protein kinase C iota type (Homo sapiens) (UniProt P41743)", "assay": "Inhibition of human PKCiota at 100 nM using ERMRPRKRQGSVRRRV as substrate by [gamma-33P]-ATP assay"}, "[31]": {"assay": "Inhibition of PI3K/Akt/mTOR signaling in human HeLa cells assessed as reduction in AKT 308 phosphorylation incubated for 24 hrs by Western blot analysis", "type": "cell-based"}}}
{"smiles": "COc1ccc(N2C(=O)COc3ccc(-c4cnc(OC)c(NS(=O)(=O)c5ccc(F)cc5)c4)cc32)cc1", "values": [{"measurement": "inhibition", "setting": "[1]", "result": 4.51, "unit": "%"}, {"measurement": "inhibition", "setting": "[2]", "result": -8.9, "unit": "%"}, {"measurement": "inhibition", "setting": "[3]", "result": 3.34, "unit": "%"}, {"measurement": "inhibition", "setting": "[4]", "result": 2.55, "unit": "%"}, {"measurement": "inhibition", "setting": "[5]", "result": -4.58, "unit": "%"}, {"measurement": "inhibition", "setting": "[6]", "result": 5.14, "unit": "%"}, {"measurement": "inhibition", "setting": "[7]", "result": 7.09, "unit": "%"}, {"measurement": "inhibition", "setting": "[8]", "result": 5.88, "unit": "%"}, {"measurement": "inhibition", "setting": "[9]", "result": 31.9, "unit": "%"}, {"measurement": "inhibition", "setting": "[10]", "result": 28.4, "unit": "%"}, {"measurement": "inhibition", "setting": "[11]", "result": 1.42, "unit": "%"}, {"measurement": "inhibition", "setting": "[12]", "result": 8.36, "unit": "%"}, {"measurement": "inhibition", "setting": "[13]", "result": -2.98, "unit": "%"}, {"measurement": "inhibition", "setting": "[14]", "result": 5.89, "unit": "%"}, {"measurement": "Activity", "setting": "[15]", "result": "Non-Toxic"}, {"measurement": "inhibition", "setting": "[16]", "result": 5.36, "unit": "%"}, {"measurement": "inhibition", "setting": "[17]", "result": -3.55, "unit": "%"}, {"measurement": "inhibition", "setting": "[18]", "result": 2.41, "unit": "%"}, {"measurement": "inhibition", "setting": "[19]", "result": -1.55, "unit": "%"}, {"measurement": "inhibition", "setting": "[20]", "result": 26.8, "unit": "%"}, {"measurement": "inhibition", "setting": "[21]", "result": -9.8, "unit": "%"}, {"measurement": "inhibition", "setting": "[22]", "result": 22.6, "unit": "%"}, {"measurement": "inhibition", "setting": "[23]", "result": 23.3, "unit": "%"}, {"measurement": "inhibition", "setting": "[24]", "result": 2.24, "unit": "%"}, {"measurement": "inhibition", "setting": "[25]", "result": -0.05, "unit": "%"}, {"measurement": "inhibition", "setting": "[26]", "result": 18.8, "unit": "%"}, {"measurement": "inhibition", "setting": "[27]", "result": 20.8, "unit": "%"}, {"measurement": "inhibition", "setting": "[28]", "result": 1.95, "unit": "%"}, {"measurement": "inhibition", "setting": "[29]", "result": 0.47, "unit": "%"}, {"measurement": "inhibition", "setting": "[30]", "result": -2.31, "unit": "%"}, {"measurement": "inhibition", "setting": "[31]", "result": "Dose-dependent effect"}]}
